From PMC12833730, “Discovery of a First‐in‐Class Covalent Allosteric SHP1 Inhibitor with Immunotherapeutic Activity” (Angewandte Chemie (International Ed. in English), 2025)

Assays:
Experiment in all cases: PTP panel IC50, 60-min preincubation
Assay type in all cases: biochemical
MKP5 = target: T1, MKP5 (Homo sapiens, UniProt Q9Y6W6)
T1 construct: MKP5, residues 320-647; made in house; host or cells: E. coli BL21(DE3)
Excerpt: (§1) Building on the results from the SAR “by‐catalog” study, the following medicinal chemistry effort was prioritized on a systematic survey of the central phenyl scaffold, the sulfonamide linker, and the distal aryl moiety with the goal of a multiparameter optimization of potency and selectivity for SHP1 inhibition as well as drug‐like properties such as aqueous solubility and cell permeability. Additionally, given the crucial requirement for targeted covalent inhibitors to maintain tempered reactivity that enables selective target engagement and reduces cross‐reactivity to by‐standing nucleophiles in the cellular milieu,^[ [74], [75] ^] the medicinal chemistry campaign also sought to lower SHP1 covalent inhibitor reactivity with GSH and cytotoxicity. Careful assessment and evaluation of the SAR and other desirable drug‐like attributes of all synthesized molecules led to the identification of M029 (Figure 2a and Figure S2D, manuscript in preparation). […] To determine the selectivity of M029 for SHP1, we measured the IC50 value for M029‐mediated inhibition of a number of PTPs after a 60‐min preincubation. […] To assess potential direct interactions between SHP1 and M029, we utilized the thermal shift assay to measure the thermal stability of SHP1 in the presence of M029. […] To corroborate the covalent interaction between SHP1 and M029, a single SHP1‐M029 covalent adduct was observed by electrospray protein mass spectrometry when SHP1 was incubated with M029 (Figure 2e). […] This is in line with the expectation that SHP1 inactivation by M029 occurs through nucleophilic substitution of the chlorine from the chloroacetamide warhead.
(§2) To further confirm the time-dependent inhibition and determine the IC50 of acquired hits, repurchased compounds from Enamine were serially diluted in a 96-well plate, followed by the addition of proteins at 200 nM. After 10-minute and 60-minute preincubation, 2 µL of the mixture was transferred into 100 µM 6,8-Difluoro-4-Methylumbelliferyl Phosphate (DiFMUP, Invitrogen, cat# D6567) at a final volume of 200 µL. The reaction was allowed to proceed for 5 minutes and quenched by the addition of 40 µl of a 160 µM solution of bpV(Phen) (Sigma-Aldrich, cat# SML0889). The fluorescence signal was measured using a CLARIOstar Plus Microplate Spectrophotometer (BMG Labtech) using excitation and emission wavelengths of 340 nm and 450 nm, respectively. Data were fitted using Prism GraphPad 10.1.1.

Ssu72 = Ssu72 (Homo sapiens, UniProt Q9NP77)
Excerpt: as §1, §2

STEP = target: T2, STEP (Homo sapiens, UniProt P54829)
T2 construct: STEP, residues 258-539; made in house; host or cells: E. coli BL21(DE3)
Excerpt: as §1, §2

CD45 = target: T3, CD45 (Homo sapiens, UniProt P08575)
T3 construct: CD45, residues 620-1236; made in house; host or cells: E. coli BL21(DE3)
Excerpt: as §1, §2

HePTP = target: T4, HePTP (Homo sapiens, UniProt P35236)
T4 construct: HePTP, residues 22-360; made in house; host or cells: E. coli BL21(DE3)
Excerpt: as §1, §2

CDC14A = target: T5, CDC14A (Homo sapiens, UniProt Q9UNH5)
T5 construct: CDC14A, residues 1-413; made in house; host or cells: E. coli BL21(DE3)
Excerpt: as §1, §2

FAP1 = target: T6, FAP1 (Homo sapiens, UniProt Q12923)
T6 construct: FAP1, residues 2124-2485; made in house; host or cells: E. coli BL21(DE3)
Excerpt: as §1, §2

PP5 = PP5 (Homo sapiens, UniProt P53041)
Excerpt: as §1, §2

PEST = target: T7, PEST (Homo sapiens, UniProt Q05209)
T7 construct: PTP-PEST, residues 5-304; made in house; host or cells: E. coli BL21(DE3)
Excerpt: as §1, §2

TCPTP = target: T8, TCPTP (Homo sapiens, UniProt P17706)
T8 construct: TC-PTP, residues 1-387; made in house; host or cells: E. coli BL21(DE3)
Excerpt: as §1, §2

LMPTP = target: T9, LMPTP (Homo sapiens, UniProt P24666)
T9 construct: LMWPTP, residues 1-158; made in house; host or cells: E. coli BL21(DE3)
Excerpt: as §1, §2

T7 sequence (Q05209 5-304): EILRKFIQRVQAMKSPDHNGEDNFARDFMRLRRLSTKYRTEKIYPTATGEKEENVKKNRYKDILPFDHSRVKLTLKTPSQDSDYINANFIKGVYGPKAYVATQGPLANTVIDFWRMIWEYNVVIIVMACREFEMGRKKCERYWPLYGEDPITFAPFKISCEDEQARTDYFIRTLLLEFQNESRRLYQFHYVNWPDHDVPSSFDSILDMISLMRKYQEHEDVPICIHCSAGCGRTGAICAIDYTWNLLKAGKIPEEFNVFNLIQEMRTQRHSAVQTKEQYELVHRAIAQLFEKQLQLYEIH
T5 sequence (Q9UNH5 1-413, species assumed): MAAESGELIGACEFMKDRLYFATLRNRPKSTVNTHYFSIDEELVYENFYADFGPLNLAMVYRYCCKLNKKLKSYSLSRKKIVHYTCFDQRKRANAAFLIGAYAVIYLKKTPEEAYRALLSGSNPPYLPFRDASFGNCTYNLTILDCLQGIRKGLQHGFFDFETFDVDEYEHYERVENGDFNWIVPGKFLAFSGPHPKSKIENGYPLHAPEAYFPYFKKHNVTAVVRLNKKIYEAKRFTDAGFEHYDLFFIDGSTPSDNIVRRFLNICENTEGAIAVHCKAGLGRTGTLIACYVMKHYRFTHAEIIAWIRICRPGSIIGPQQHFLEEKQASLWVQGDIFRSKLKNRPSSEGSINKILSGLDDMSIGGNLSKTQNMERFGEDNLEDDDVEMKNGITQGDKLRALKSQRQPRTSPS
Ssu72, sequence (Q9NP77 whole entry, species assumed): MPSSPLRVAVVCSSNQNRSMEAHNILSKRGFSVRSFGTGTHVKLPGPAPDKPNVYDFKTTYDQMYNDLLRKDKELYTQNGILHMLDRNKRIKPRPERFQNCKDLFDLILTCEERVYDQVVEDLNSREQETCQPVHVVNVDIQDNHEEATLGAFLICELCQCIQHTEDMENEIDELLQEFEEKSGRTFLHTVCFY
T6 sequence (Q12923 2124-2485): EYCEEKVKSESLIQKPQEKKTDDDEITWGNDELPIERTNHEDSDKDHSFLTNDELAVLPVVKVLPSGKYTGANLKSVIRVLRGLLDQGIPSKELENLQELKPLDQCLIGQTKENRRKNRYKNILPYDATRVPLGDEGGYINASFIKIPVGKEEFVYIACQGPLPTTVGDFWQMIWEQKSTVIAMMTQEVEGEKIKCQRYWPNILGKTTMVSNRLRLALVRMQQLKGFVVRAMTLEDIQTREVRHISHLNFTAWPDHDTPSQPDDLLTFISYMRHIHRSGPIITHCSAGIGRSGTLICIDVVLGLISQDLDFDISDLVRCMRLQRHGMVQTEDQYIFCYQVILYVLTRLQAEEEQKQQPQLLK
T1 sequence (Q9Y6W6 320-467 limits assumed, species assumed): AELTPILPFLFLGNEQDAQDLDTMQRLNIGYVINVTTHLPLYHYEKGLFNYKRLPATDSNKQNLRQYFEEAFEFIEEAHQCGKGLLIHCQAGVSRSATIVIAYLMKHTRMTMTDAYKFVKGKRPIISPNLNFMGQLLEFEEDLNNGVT
T2 sequence (P54829 282-563, species assumed): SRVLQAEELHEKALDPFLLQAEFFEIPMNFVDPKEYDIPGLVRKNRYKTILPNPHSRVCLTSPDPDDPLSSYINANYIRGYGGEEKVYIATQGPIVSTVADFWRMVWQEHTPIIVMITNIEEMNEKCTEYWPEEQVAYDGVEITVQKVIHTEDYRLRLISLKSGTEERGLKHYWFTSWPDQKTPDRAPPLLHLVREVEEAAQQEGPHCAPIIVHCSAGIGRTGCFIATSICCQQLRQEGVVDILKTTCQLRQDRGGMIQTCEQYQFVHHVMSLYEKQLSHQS
T8 sequence (P17706 1-387 isoform P17706-2): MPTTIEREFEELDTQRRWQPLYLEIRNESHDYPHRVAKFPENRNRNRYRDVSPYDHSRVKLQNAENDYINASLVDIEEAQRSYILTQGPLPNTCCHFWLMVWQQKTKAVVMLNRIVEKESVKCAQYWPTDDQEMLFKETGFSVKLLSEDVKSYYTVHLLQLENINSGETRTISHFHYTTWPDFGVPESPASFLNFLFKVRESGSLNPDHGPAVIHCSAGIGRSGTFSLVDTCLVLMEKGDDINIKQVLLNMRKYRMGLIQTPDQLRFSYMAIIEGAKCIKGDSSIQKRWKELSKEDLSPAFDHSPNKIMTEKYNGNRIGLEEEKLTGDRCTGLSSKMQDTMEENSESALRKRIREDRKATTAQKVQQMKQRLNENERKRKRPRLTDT
T9 sequence (P24666 whole entry, the tested form may be a part): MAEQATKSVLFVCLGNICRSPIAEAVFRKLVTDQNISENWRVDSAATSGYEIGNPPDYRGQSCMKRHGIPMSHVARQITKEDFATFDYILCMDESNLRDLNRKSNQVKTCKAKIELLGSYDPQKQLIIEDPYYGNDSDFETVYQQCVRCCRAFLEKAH
T3 sequence (P08575 620-1236, species assumed): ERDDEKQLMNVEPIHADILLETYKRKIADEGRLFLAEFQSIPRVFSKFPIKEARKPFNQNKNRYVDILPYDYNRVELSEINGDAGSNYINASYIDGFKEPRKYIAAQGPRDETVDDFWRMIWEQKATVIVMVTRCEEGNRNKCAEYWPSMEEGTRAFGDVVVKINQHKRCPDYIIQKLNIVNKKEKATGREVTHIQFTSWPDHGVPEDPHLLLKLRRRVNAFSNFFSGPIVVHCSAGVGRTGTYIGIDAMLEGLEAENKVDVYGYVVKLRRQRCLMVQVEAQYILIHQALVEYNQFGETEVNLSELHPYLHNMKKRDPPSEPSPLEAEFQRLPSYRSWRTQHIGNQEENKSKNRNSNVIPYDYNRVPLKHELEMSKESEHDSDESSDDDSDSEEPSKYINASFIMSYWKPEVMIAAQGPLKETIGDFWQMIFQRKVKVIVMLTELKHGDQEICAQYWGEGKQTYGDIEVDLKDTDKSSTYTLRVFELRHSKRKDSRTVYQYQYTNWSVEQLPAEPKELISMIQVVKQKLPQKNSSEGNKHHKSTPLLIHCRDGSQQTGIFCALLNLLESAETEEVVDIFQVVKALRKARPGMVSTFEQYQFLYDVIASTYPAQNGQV
PP5, sequence (P53041 whole entry): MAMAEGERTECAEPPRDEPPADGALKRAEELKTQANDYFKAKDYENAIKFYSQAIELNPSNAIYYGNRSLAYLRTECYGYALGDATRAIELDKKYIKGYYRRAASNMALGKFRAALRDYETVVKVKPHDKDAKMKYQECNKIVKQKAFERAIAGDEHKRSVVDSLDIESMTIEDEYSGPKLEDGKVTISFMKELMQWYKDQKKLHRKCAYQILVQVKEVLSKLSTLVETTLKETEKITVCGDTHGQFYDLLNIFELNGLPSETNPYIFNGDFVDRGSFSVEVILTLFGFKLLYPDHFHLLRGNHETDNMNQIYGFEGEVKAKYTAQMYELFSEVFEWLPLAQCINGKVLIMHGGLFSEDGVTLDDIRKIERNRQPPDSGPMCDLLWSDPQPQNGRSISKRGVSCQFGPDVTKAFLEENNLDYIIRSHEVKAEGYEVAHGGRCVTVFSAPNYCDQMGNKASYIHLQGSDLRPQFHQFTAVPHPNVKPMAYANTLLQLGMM
T4 sequence (P35236 22-360): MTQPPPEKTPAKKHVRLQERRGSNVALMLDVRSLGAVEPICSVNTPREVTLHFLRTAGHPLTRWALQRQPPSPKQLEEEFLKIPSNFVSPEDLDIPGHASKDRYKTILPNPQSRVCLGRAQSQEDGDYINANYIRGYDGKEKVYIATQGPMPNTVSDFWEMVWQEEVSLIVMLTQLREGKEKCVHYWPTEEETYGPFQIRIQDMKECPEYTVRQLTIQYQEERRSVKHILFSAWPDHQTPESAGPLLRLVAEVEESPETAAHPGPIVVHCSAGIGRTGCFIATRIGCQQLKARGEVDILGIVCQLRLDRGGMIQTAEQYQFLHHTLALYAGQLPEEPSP

## N#Cc1ccsc1NS(=O)(=O)c1ccc(NC(=O)CCl)cc1 [M029, 2-Chloro-N-(4-(N-(3-cyanothiophen-2-yl)sulfamoyl)phenyl)acetamide]
MKP5
  IC50: 165 ± 20.1 µM
Ssu72
  IC50: > 200 µM
STEP
  IC50: > 200 µM
CD45
  IC50: 139 ± 38.5 µM
HePTP
  IC50: > 200 µM
CDC14A
  IC50: > 200 µM
FAP1
  IC50: > 200 µM
PP5
  IC50: > 200 µM
PEST
  IC50: > 200 µM
TCPTP
  IC50: 150 ± 31.1 µM
LMPTP
  IC50: > 200 µM
